This is an account of results in article PMC8624133, “10th Trends in Medical Mycology Held on 8 to 11 October 2021, Aberdeen, Scotland, Organized by the European Confederation of Medical Mycology (ECMM)” (Journal of Fungi, 2021).

In brackets after ≈: the same amount, converted by molar mass. Where two headings read alike, the source gives them in different places.

Series [1] in a line: ECMM multinational study, risk factors for CAPA. The class given is in vivo, human. Conditions: critically ill COVID-19 patients in ICU, 592 patients. The text has this:
Methods: The European Confederation of Medical Mycology (ECMM) conducted a multinational study including 20 centers from nine different countries to assess epidemiology, diagnosis, risk factors, treatment and outcome of CAPA. CAPA was defined according to ECMM/ISHAM consensus definitions.

In a further series the test system is dermatophyte strains. Nature of the series: Terbinafine modified breakpoint method. The class given is cell-based.
A further series relates to T. rubrum. Conditions: eight susceptible strains; ref Arendrup et al., 2020; cited from earlier work.
Series [2] deals with T. rubrum and T. interdigitale. The settings on record: cited from earlier work.
The test system of a further series is T. indotineae. The settings on record: eleven susceptible strains; ref Arendrup et al., 2020; cited from earlier work.
Series [3] has as its system T. rubrum and T. interdigitale isolates. In words: CLSI M38A2 broth microdilution. Background: Broth dilution looks for growth in wells or tubes with falling amounts of substance.
The subject of series [4] is dermatophyte standard strains and clinical isolates. In words: Broth microdilution MIC. The class given is cell-based, Trichophyton and Microsporum spp. The settings on record: all tested strains. Here is the method: Materials & Methods: The minimum inhibitory concentration (MIC) of honokiol was assessed by broth microdilution method against standard strains (Trichophyton rubrum ATCC 28188, Trichophyton mentagrophytes ATCC 9533), and clinical isolates (T. rubrum, T. ajelloi, Microsporum canis and M. gypseum). Evaluation of honokiol effect on ergosterol biosynthesis was assessed by high performance liquid chromatography. Checkerboard microtiter method was used to identify synergistic combinations of honokiol with terbinafine against Trichophyton rubrum ATCC 28188. The combinatorial effect was evaluated by calculating the fractional inhibitory concentration index (FICI).

Series [5] has as its system environmental yeasts from a lagoon. Nature of the series: organism not typed. Type of series: cell-based.
Series [6] concerns T. mentagrophytes. In words: EUCAST E.DEF 11.0 MIC. The class given is cell-based. Conditions: Trichophyton mentagrophytes.
Another series deals with Trichophyton spp. Nature of the series: Agar-based screening method. The class given is cell-based. Conditions: 0.5 McF, 5 days, 30 °C. Here is the method:
Inter-experimental variation was evaluated by testing 10 isolates on three different days. Single-centre validation: After determining the optimal conditions for the agar screening method, 112 molecularly identified Trichophyton spp. clinical isolates were tested.

Series [7] relates to T. mentagrophytes. In words: EUCAST E.DEF11.0 susceptibility.
Description: Materials/methods: Samples from patients with clinically suspected dermatophytosis attending the outpatient Dermatology-Venereology Department of “Attikon” hospital during 2010–2019 were collected. Specimens were processed for direct microscopic examination (Blankophor in 10% KOH) and were inoculated on two plates each of Sabouraud’s dextrose agar supplemented with gentamicin + chloramphenicol and the other containing phenol red + cyclohexamide (incubation at 30 °C up to 4 weeks). Recovered isolates were identified to the genus and species level by standard phenotypic methods based on their colonial/microscopic morphology and biochemical properties (hydrolysis of urea) and were stored in 10% glycerol stocks at −70 °C.
Series [8] deals with clinical dermatophyte isolates. Nature of the series: Inhibition of dermatophyte biofilm formation. Type of series: cell-based. Here is the method: Materials and Methods: The study population consisted of 50 dermatophyte isolates that were collected from 2019 to 2020 from patients referred to the two mycology laboratory of Shiraz, Iran. The isolates were identified by ITS gene region sequencing. The suspension (equivalent to 0.5 McFarland) of the isolates was used to evaluate the ability of the isolates to form biofilms and also the effect of itraconazole, terbinafine and griseofulvin at concentrations of 2–32 μg/mL on inhibiting biofilm formation. Two optical microscope and a scanning electron microscope were used to study the microscopic structure of biofilms formed on the surface of 96-well plate wells.

The test system of series [9] is clinical Trichophyton spp. isolates. In words: Checkerboard microdilution based on EUCAST. Type of series: cell-based. Conditions: for MIC: Trichophyton, read-out: geometric mean MIC, drug alone; for FICI of isolates exhibiting synergy / isolates with synergistic interactions: terbinafine + itraconazole. Here is the method: Materials & Methods: The combination has been tested against 9 terbinafine-susceptible and 7 terbinafine-resistant clinical Trichophyton spp. isolates from India. In vitro interactions were evaluated by a microdilution checkerboard technique based on the EUCAST reference method for antifungal susceptibility testing. The mode of interaction between terbinafine and itraconazole was determined by the fractional inhibitory concentration index (FICI). The FICI was interpreted as FICI ≤ 0.5 = synergy, FICI > 0.5–4 = no interaction, and FICI > 4.0 = antagonism.

Series [10] concerns T. mentagrophytes isolates. Conditions: cited from earlier work.
Series [11] relates to Exophiala phaeomuriformis. In words: MIC, CLSI M27-A3. The class given is cell-based. The settings on record: read-out: MIC values. A digest of the protocol:
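Isolate recovered from aviation kerosene by 0.22 μm membrane filtration, grown on potato dextrose agar at 30 °C for seven days and identified by ITS sequencing. Susceptibility to clinical antifungals tested per CLSI M27-A3.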

The subject of series [12] is A. fumigatus isolates (ARAF and azole susceptible). In words: Broth microdilution after EUCAST. The class given is cell-based. Conditions: Aspergillus fumigatus; range, 16 ARAF and 4 azole susceptible isolates. Here is the method:
(§1) Materials & Methods: Olorofim activity has been analyzed at different stages (prior adhesion, 4 h, 12 h, 24 h and 48 h after inoculation) of biofilm formation of clinical ARAF strains (n = 16) as well as azole susceptible A. fumigatus isolates (n = 4) by using an XTT assay. Olorofim was applied in concentrations of a total, a half, a quarter and an eighth of the previously determined minimum inhibitory concentrations (MICs) by broth microdilution method after EUCAST.

The subject of a further series is A. fumigatus biofilm. Nature of the series: Antibiofilm activity, XTT assay. Type of series: cell-based, Aspergillus fumigatus. Here is the method: as §1
Where [13] appears, read: 7 terbinafine-resistant isolates.
The mark [14] stands for this setting: 9 terbinafine-susceptible isolates.

What is called MIC is the smallest concentration in the dilution series that meets the test's criterion for growth inhibition.

Description for dermatophyte strains: In vitro sensitivity testing against terbinafine was carried out using a modified breakpoint method according to Yamada et al., (2017) and Ebert et al., (2020).

For “tocilizumab: tocilizumab received by COVID-19 ICU patients”, in series [1], the “hazard ratio for CAPA” value turned out to be 2.45.
Consider `CN(C/C=C/C#CC(C)(C)C)Cc1cccc2ccccc12` [terbinafine], for which, in the series with dermatophyte strains (T. mentagrophytes ITS type VIII (T. indotineae), MIC ≥0.2 µg/mL counts as resistant), the in vitro resistance entry was “In vitro resistance”. For the same molecule, the MIC was 0.1 µg/mL (≈ 0.343 µM) in the series with dermatophyte strains (few strains, conspicuous but not resistant); “under 0.25 µg/µL” in the series with T. rubrum; “under 0.25 µg/µL” in the series on T. indotineae; 1 to 2 µg/mL (≈ 3.43 to 6.86 µM) in series [3] (Trichophyton interdigitale); 0.03 to 0.06 µg/mL in series [4]; 4 to 256 µg/mL in series [5] (read-out: MIC of resistant-like isolates). Besides, the minimum inhibitory concentration (MIC) against T. mentagrophytes [6] was 0.25 to 8 µg/mL (≈ 0.858 to 27.5 µM); with T. mentagrophytes [7] (Trichophyton mentagrophytes, read-out: MIC of strains with elevated MICs), 0.25 to 8 µg/mL; in series [9] (setting [13]) it was 11.9 µg/mL; in [9] (setting [14]), 0.12 µg/mL; in [11] it was 0.0156 µg/mL (≈ 0.0535 µM). Moreover, the terbinafine resistance in [2] was 1%. For the same molecule, in series [3], the “isolates less susceptible by microdilution” value is recorded as 2.44%. In [5], the “isolates classified as resistant-like” value worked out at 39. Moreover, the “optimal agar concentration preventing growth of WT isolates” value with Trichophyton spp. (for high-level resistant isolates) is recorded as 0.125 mg/L; in the series on Trichophyton spp. (for low-level resistant isolates) it was 0.01 mg/L. Also, the “strains with elevated MICs” value in the series on T. mentagrophytes [7] (9/24) stood at 37.5%. Besides, in series [8] (inhibition of biofilm formation, read-out: mean concentrations of IC50), the IC50 came out at 2.42 µg/mL (≈ 8.3 µM). In [8] (tested at 2–32 μg/mL), the “samples with IC50 in concentration <2” value turned out to be 70%. In addition, the “MIC range, drug alone” value lay within 2 to 64 µg/mL in series [9] (setting [13]) and 0.03125 to 0.5 µg/mL in series [9] (setting [14]). Moreover, the “FICI of isolates exhibiting synergy” value in series [9] (resistant isolates) was in the range of 0.032 to 0.3125; in series [9] (susceptible isolates), 0.3125 to 0.5. Besides, the “isolates with synergistic interactions” value in series [9] (resistant isolates) is on record as 4/7; in [9] (susceptible isolates), 4/9. The resistant isolates in series [10] is 30–70%.
Regarding `Cc1cc(-c2ccccc2)c(C(=O)C(=O)Nc2ccc(N3CCN(c4ncc(F)cn4)CC3)cc2)n1C` [olorofim], the minimal inhibitory concentration (MIC) in series [12] was in the range of 0.008 to 0.03 µg/mL (≈ 0.016 to 0.0602 µM). Further, the biofilm reduction result in the series with A. fumigatus biofilm (added prior to adhesion (t0) and right after adhesion (t4), compared to non-treated control) is “up to 96%”. In addition, the “effect on mature biofilm” value in the series with A. fumigatus biofilm (t24 & t48) is “did not show an effect”.
